Values of other authors as cited in US10966913B2, “Cosmetic use of spiculisporic acid as a deodorant active agent” (L'OREAL, priority 2014, dated 2021).

Settings: room temperature

solubility in ethanol: soluble | solubility in fatty substances: insoluble | solubility in water: insoluble
SMILES: CCCCCCCCCCC(C(=O)O)C1(C(=O)O)CCC(=O)O1 (stereo not drawn) [spiculisporic acid, 4,5-dicarboxy-4-pentadecanolide]
